Experimental data published in PubChem BioAssay AID2060491 (Molecular Pharmacology Branch, DTP, NCI, 2025).

System: 857933-349-R-J2-PDC complex spheroids, viability
Assay: Anticancer human tumor 857933-349-R-J2-PDC patient-derived colon adenocarcinoma cell line growth inhibition [GQUAD]
Details: for IC50: curve of first compound; for viability, T/C: stronger effect = lower value
Procedure, shortened: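 Tumor cells were grown as complex spheroids with HUVEC endothelial cells and mesenchymal stem cells as stroma. G-quadruplex stabilizers were combined with targeted agents over half-log dilutions from near the clinical Cmax, or from 10 microM.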

[1] = second compound 0.0316 µM, first compound 0.0316 µM
[2] = second compound 0.0316 µM, first compound 0.1 µM
[3] = second compound 0.0316 µM, first compound 0.316 µM
[4] = second compound 0.0316 µM, first compound 1 µM
[5] = second compound 0.0316 µM, first compound 3.16 µM
[6] = second compound 0.0316 µM, first compound 10 µM
[7] = second compound 0.1 µM, first compound 0.0316 µM
[8] = second compound 0.1 µM, first compound 0.1 µM
[9] = second compound 0.1 µM, first compound 0.316 µM
[10] = second compound 0.1 µM, first compound 1 µM
[11] = second compound 0.1 µM, first compound 3.16 µM
[12] = second compound 0.1 µM, first compound 10 µM
[13] = second compound 0.316 µM, first compound 0.0316 µM
[14] = second compound 0.316 µM, first compound 0.1 µM
[15] = second compound 0.316 µM, first compound 0.316 µM
[16] = second compound 0.316 µM, first compound 1 µM
[17] = second compound 0.316 µM, first compound 3.16 µM
[18] = second compound 0.316 µM, first compound 10 µM
[19] = second compound 1 µM, first compound 0.0316 µM
[20] = second compound 1 µM, first compound 0.1 µM
[21] = second compound 1 µM, first compound 0.316 µM
[22] = second compound 1 µM, first compound 1 µM
[23] = second compound 1 µM, first compound 3.16 µM
[24] = second compound 1 µM, first compound 10 µM
[25] = second compound 3.16 µM, first compound 0.0316 µM
[26] = second compound 3.16 µM, first compound 0.1 µM
[27] = second compound 3.16 µM, first compound 0.316 µM
[28] = second compound 3.16 µM, first compound 1 µM
[29] = second compound 3.16 µM, first compound 3.16 µM
[30] = second compound 3.16 µM, first compound 10 µM
[31] = second compound 10 µM, first compound 0.0316 µM
[32] = second compound 10 µM, first compound 0.1 µM
[33] = second compound 10 µM, first compound 0.316 µM
[34] = second compound 10 µM, first compound 1 µM
[35] = second compound 10 µM, first compound 3.16 µM
[36] = second compound 10 µM, first compound 10 µM
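Also: spheroids exposed to compounds for one week before readout.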
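For viability, T/C in this document: percent viability relative to vehicle DMSO wells taken as 100%.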

CC1COCCN1c1cc(-c2ccnn2C)c2ccnc(-c3ccn[nH]3)c2n1 (stereo not drawn) + Cc1[nH]c2ccc(F)cc2c1-c1nc2c3cccnc3c3ncccc3c2[nH]1
IC50 (second compound 0.0316 µM): 0.25 µM | IC50 (second compound 0.1 µM): 0.491 µM | IC50 (second compound 0.316 µM): 0.327 µM | IC50 (second compound 1 µM): 0.28 µM | IC50 (second compound 3.16 µM): 0.197 µM | IC50 (second compound 10 µM): 0.277 µM | viability, T/C [1]: 73.7% | viability, T/C [2]: 53.2% | viability, T/C [3]: 50.3% | viability, T/C [4]: 43.8% | viability, T/C [5]: 55.3% | viability, T/C [6]: 44.8% | viability, T/C [7]: 69.6% | viability, T/C [8]: 70.9% | viability, T/C [9]: 53.2% | viability, T/C [10]: 43.5% | viability, T/C [11]: 46.9% | viability, T/C [12]: 44.2% | viability, T/C [13]: 71.7% | viability, T/C [14]: 56.6% | viability, T/C [15]: 49.2% | viability, T/C [16]: 48.8% | viability, T/C [17]: 47.4% | viability, T/C [18]: 46.6% | viability, T/C [19]: 61% | viability, T/C [20]: 61.5% | viability, T/C [21]: 48.6% | viability, T/C [22]: 43.1% | viability, T/C [23]: 52.8% | viability, T/C [24]: 50.1% | viability, T/C [25]: 75.2% | viability, T/C [26]: 56% | viability, T/C [27]: 45% | viability, T/C [28]: 43.8% | viability, T/C [29]: 44.6% | viability, T/C [30]: 44.7% | viability, T/C [31]: 74.4% | viability, T/C [32]: 57% | viability, T/C [33]: 50.4% | viability, T/C [34]: 43.1% | viability, T/C [35]: 46.1% | viability, T/C [36]: 42.6%

CC1COCCN1c1cc(C2(O)CC3CCC(C2)O3)c2cnn(-c3ccn[nH]3)c2n1 (stereo not drawn) + Cc1[nH]c2ccc(F)cc2c1-c1nc2c3cccnc3c3ncccc3c2[nH]1
IC50 (second compound 0.0316 µM): 0.289 µM | IC50 (second compound 0.1 µM): 0.273 µM | IC50 (second compound 0.316 µM): 0.44 µM | IC50 (second compound 1 µM): 0.312 µM | IC50 (second compound 3.16 µM): 0.699 µM | IC50 (second compound 10 µM): 0.267 µM | viability, T/C [1]: 76.9% | viability, T/C [2]: 64.5% | viability, T/C [3]: 49.6% | viability, T/C [4]: 41.2% | viability, T/C [5]: 47.2% | viability, T/C [6]: 42.5% | viability, T/C [7]: 69.5% | viability, T/C [8]: 61.1% | viability, T/C [9]: 44.6% | viability, T/C [10]: 47.3% | viability, T/C [11]: 50.3% | viability, T/C [12]: 51.4% | viability, T/C [13]: 67.8% | viability, T/C [14]: 65.5% | viability, T/C [15]: 52.7% | viability, T/C [16]: 42.3% | viability, T/C [17]: 45.8% | viability, T/C [18]: 42.9% | viability, T/C [19]: 58.2% | viability, T/C [20]: 59.8% | viability, T/C [21]: 46.5% | viability, T/C [22]: 44.6% | viability, T/C [23]: 46.4% | viability, T/C [24]: 47.2% | viability, T/C [25]: 64.9% | viability, T/C [26]: 59.6% | viability, T/C [27]: 52.4% | viability, T/C [28]: 46.2% | viability, T/C [29]: 48.4% | viability, T/C [30]: 45.5% | viability, T/C [31]: 77.4% | viability, T/C [32]: 61.2% | viability, T/C [33]: 49% | viability, T/C [34]: 42.4% | viability, T/C [35]: 42% | viability, T/C [36]: 46.7%

CC1COCCN1c1cc(C2(S(C)(=N)=O)CC2)nc(-c2ccnc3[nH]ccc23)n1 (stereo not drawn) + Cc1[nH]c2ccc(F)cc2c1-c1nc2c3cccnc3c3ncccc3c2[nH]1
IC50 (second compound 0.0316 µM): 6.7 µM | IC50 (second compound 0.1 µM): 6.02 µM | IC50 (second compound 0.316 µM): 6.09 µM | IC50 (second compound 1 µM): 7.1 µM | IC50 (second compound 3.16 µM): 7.16 µM | IC50 (second compound 10 µM): 6.45 µM | viability, T/C [1]: 101% | viability, T/C [2]: 103% | viability, T/C [3]: 88.5% | viability, T/C [4]: 75.4% | viability, T/C [5]: 59.6% | viability, T/C [6]: 45% | viability, T/C [7]: 99.9% | viability, T/C [8]: 101% | viability, T/C [9]: 93.3% | viability, T/C [10]: 80.9% | viability, T/C [11]: 58.8% | viability, T/C [12]: 43% | viability, T/C [13]: 106% | viability, T/C [14]: 108% | viability, T/C [15]: 90.2% | viability, T/C [16]: 79.5% | viability, T/C [17]: 58.9% | viability, T/C [18]: 43.1% | viability, T/C [19]: 103% | viability, T/C [20]: 98.2% | viability, T/C [21]: 91.9% | viability, T/C [22]: 83.6% | viability, T/C [23]: 59.7% | viability, T/C [24]: 45.7% | viability, T/C [25]: 108% | viability, T/C [26]: 96.3% | viability, T/C [27]: 81.2% | viability, T/C [28]: 86.3% | viability, T/C [29]: 60.4% | viability, T/C [30]: 43.6% | viability, T/C [31]: 104% | viability, T/C [32]: 98.5% | viability, T/C [33]: 92.5% | viability, T/C [34]: 90.9% | viability, T/C [35]: 62.3% | viability, T/C [36]: 42.1%

COc1ccc([C@@H](O)c2cc(-c3ncnc4cc(N5CCOCC5)ccc34)c(F)cc2Cl)nn1 + Cc1[nH]c2ccc(F)cc2c1-c1nc2c3cccnc3c3ncccc3c2[nH]1
IC50 (second compound 0.0316 µM): > 10 µM | IC50 (second compound 0.1 µM): 8.66 µM | IC50 (second compound 0.316 µM): > 10 µM | IC50 (second compound 1 µM): > 10 µM | IC50 (second compound 3.16 µM): > 10 µM | IC50 (second compound 10 µM): > 10 µM | viability, T/C [1]: 124% | viability, T/C [2]: 98.5% | viability, T/C [3]: 99.8% | viability, T/C [4]: 82.2% | viability, T/C [5]: 69.9% | viability, T/C [6]: 51.6% | viability, T/C [7]: 107% | viability, T/C [8]: 108% | viability, T/C [9]: 93.5% | viability, T/C [10]: 87.8% | viability, T/C [11]: 64.2% | viability, T/C [12]: 48.1% | viability, T/C [13]: 108% | viability, T/C [14]: 91.1% | viability, T/C [15]: 99.1% | viability, T/C [16]: 90.8% | viability, T/C [17]: 71.6% | viability, T/C [18]: 58.1% | viability, T/C [19]: 102% | viability, T/C [20]: 98.8% | viability, T/C [21]: 96.3% | viability, T/C [22]: 99.4% | viability, T/C [23]: 71.8% | viability, T/C [24]: 52.7% | viability, T/C [25]: 113% | viability, T/C [26]: 96.5% | viability, T/C [27]: 95.1% | viability, T/C [28]: 94% | viability, T/C [29]: 66.1% | viability, T/C [30]: 52.2% | viability, T/C [31]: 105% | viability, T/C [32]: 94.1% | viability, T/C [33]: 91.6% | viability, T/C [34]: 79.9% | viability, T/C [35]: 68.6% | viability, T/C [36]: 51.9%
